From patent publication US20190388437A1, “COMPOSITIONS AND METHODS FOR TREATING BONE AND JOINT INFECTIONS” (priority 2014, published 2019)
Converted amounts (≈) assume the structure as drawn.

Experiments:
Type in all cases: cell-based
[1] = Synergy testing by the checkerboard method, FA/co-drug; details: FA combined with the co-drug
Protocol: CLSI broth microdilution (BMD) and anaerobic agar dilution (AD) methods were performed. Modifications of standard test methods included adding 10% human serum, adjusting the medium pH to 5, 6, and 8, and synergy was assessed by the checkerboard method. Mutational rates to R were determined at 4×.

[2] = system: S. aureus MRSA (Mec A genotype); experiment: Agar dilution MIC against resistant S. aureus; details: Staphylococcus aureus
Source text: (§1) The in vitro activity of CEM-102 was compared with that of telithromycin, azithromycin, erythromycin, levofloxacin, linezolid, and doxycycline against a total of 145 resistant S. aureus by agar dilution procedures (CLSI, M7-A7, M100-S18). The tested strains included S. aureus MRSA (Mec A genotype; 100 isolates), macrolide-resistant (ermA, B, C genotype or MLSb-resistant; 25), and ciprofloxacin-resistant (gyrA and parC genotype; 20).

[3] = system: ciprofloxacin-resistant (gyrA and parC genotype) S. aureus; experiment: Agar dilution MIC against resistant S. aureus; details: Staphylococcus aureus
Source text: as §1

[4] = system: macrolide-resistant S. aureus (ermA, B, C genotype or MLSb-resistant); experiment: Agar dilution MIC against resistant S. aureus; details: Staphylococcus aureus
Source text: as §1

[5] = system: S. aureus; experiment: MIC population distribution, 217 S. aureus Canadian isolates; details: 217 Canadian isolates
[6] = system: S. aureus; experiment: Reference broth microdilution susceptibility testing, Canadian isolates; details: overall S. aureus population
Source text: (§2) To determine a contemporary susceptibility (S) spectrum pattern. 153 GP isolates (123 S. aureus, 15 coagulase-negative staphylococci [CoNS] and 15 S. pyogenes [SPYO]) were collected from 5 Canadian medical centers between 2001 and 2006.

[7] = system: S. pyogenes [SPYO]; experiment: as above
Source text: as §2

| Compound | Additive (number) [1] | Antagonism (number) [1] | Indeterminate (number) [1] | Indifferent (number) [1] | Synergy Complete (number) [1] | Synergy Partial (number) [1] | MIC90 [2] | MIC90 [3] | MIC90 [4] | resistance rate [5] | R rate [6] | R rate [7] |
| --- | --- | --- | --- | --- | --- | --- | --- | --- | --- | --- | --- | --- |
| C[C@H]1COc2c(N3CCN(C)CC3)c(F)cc3c(=O)c(C(=O)O)cn1c23 [Levofloxacin] | 0 | 0 | 2 | 4 | 0 | 0 | 16 µg/mL (≈ 44.3 µM) | > 32 µg/mL | 4 µg/mL (≈ 11.1 µM) |  |  |  |
| Cc1onc(-c2ccccc2)c1C(=O)N[C@@H]1C(=O)N2[C@@H]1SC(C)(C)[C@@H]2C(=O)O [Oxacillin] | 1 | 0 | 1 | 3 | 0 | 1 |  |  |  |  |  |  |
| CO[C@H]1/C=C/O[C@@]2(C)Oc3c(C)c(O)c4c(O)c(c(/C=N/N5CCN(C)CC5)c(O)c4c3C2=O)NC(=O)/C(C)=C\C=C\[C@H](C)[C@H](O)[C@@H](C)[C@@H](O)[C@@H](C)[C@H](OC(C)=O)[C@@H]1C [Rifampin] | 1 | 0 | 0 | 0 | 0 | 5 |  |  |  |  |  |  |
| CN[C@H](CC(C)C)C(=O)N[C@H]1C(=O)N[C@@H](CC(N)=O)C(=O)N[C@H]2C(=O)N[C@H]3C(=O)N[C@H](C(=O)N[C@H](C(=O)O)c4cc(O)cc(O)c4-c4cc3ccc4O)[C@H](O)c3ccc(c(Cl)c3)Oc3cc2cc(c3O[C@@H]2O[C@H](CO)[C@@H](O)[C@H](O)[C@H]2O[C@H]2C[C@](C)(N)[C@H](O)[C@H](C)O2)Oc2ccc(cc2Cl)[C@H]1O [Vancomycin] | 2 | 0 | 0 | 4 | 0 | 0 |  |  |  |  |  |  |
| CC[C@H]1OC(=O)[C@H](C)[C@@H](O[C@H]2C[C@@](C)(OC)[C@@H](O)[C@H](C)O2)[C@H](C)[C@@H](O[C@@H]2O[C@H](C)C[C@H](N(C)C)[C@H]2O)[C@](C)(O)C[C@@H](C)CN(C)[C@H](C)[C@@H](O)[C@]1(C)O [azithromycin] |  |  |  |  |  |  | > 32 µg/mL | 16 µg/mL (≈ 21.4 µM) | > 32 µg/mL |  |  |  |
| CCC[C@@H]1C[C@@H](C(=O)N[C@@H]([C@H]2O[C@H](SC)[C@H](O)[C@@H](O)[C@H]2O)[C@H](C)Cl)N(C)C1 [clindamycin] |  |  |  |  |  |  |  |  |  | 30.9% | 28.5% | 13.3% |
| C[C@H]1c2cccc(O)c2C(=O)C2=C(O)[C@]3(O)C(=O)C(C(N)=O)=C(O)[C@@H](N(C)C)[C@@H]3[C@@H](O)[C@@H]21 [doxycycline] |  |  |  |  |  |  | 1 µg/mL (≈ 2.25 µM) | 1 µg/mL (≈ 2.25 µM) |  |  |  |  |
| CC[C@H]1OC(=O)[C@H](C)[C@@H](O[C@H]2C[C@@](C)(OC)[C@@H](O)[C@H](C)O2)[C@H](C)[C@@H](O[C@@H]2O[C@H](C)C[C@H](N(C)C)[C@H]2O)[C@](C)(O)C[C@@H](C)C(=O)[C@H](C)[C@@H](O)[C@]1(C)O [erythromycin] |  |  |  |  |  |  | > 32 µg/mL | > 32 µg/mL | > 32 µg/mL | 52.1% | 52.0% | 20.0% |
| CC(=O)NC[C@H]1CN(c2ccc(N3CCOCC3)c(F)c2)C(=O)O1 [linezolid] |  |  |  |  |  |  | 2 µg/mL (≈ 5.93 µM) | 2 µg/mL (≈ 5.93 µM) | 2 µg/mL (≈ 5.93 µM) |  |  |  |
| CC[C@H]1OC(=O)[C@H](C)C(=O)[C@H](C)[C@@H](O[C@@H]2O[C@H](C)C[C@H](N(C)C)[C@H]2O)[C@](C)(OC)C[C@@H](C)C(=O)[C@H](C)[C@H]2N(CCCCn3cnc(-c4cccnc4)c3)C(=O)O[C@]12C [telithromycin] |  |  |  |  |  |  | 0.06 µg/mL (≈ 0.0739 µM) | 0.06 µg/mL (≈ 0.0739 µM) | 4 µg/mL (≈ 4.93 µM) |  |  |  |
| Gentamicin | 3 | 0 | 0 | 1 | 1 | 1 |  |  |  |  |  |  |
